Measured values from patent US12077508B2, “Inhibitors of the Notch transcriptional activation complex kinase (“NACK”) and methods for use of the same” (UNIVERSITY OF MIAMI, priority 2018, dated 2024).

Tests used:
OE33 spheres = assay: Tumor sphere formation assay in OE33; format: cell-based, human
Protocol: In order to assess the effect of hit to lead compounds on the proliferation of stem cell like population of Notch/NACK dependent cells, the primary tumor spheres were treated with NACK inhibitor and allow the cells to be propagated as secondary cultures. To obtain tumor spheres, cells were cultured in DMEM/F12 with 2% B-27 serum-free supplement (17604-044; Invitrogen), 20 ng/mL epidermal growth factor (EGF; PHG0311L; Invitrogen), and 20 ng/mL basic fibroblastic growth factor (bFGF; PHG0266; Invitrogen) for 14 days. Resulting tumor spheres were examined and counted under the microscope. Furthermore, the tumor spheres were collected for further RT-qPCR analysis to test the effect of hit to lead compounds on the stem like target genes.

OE33 cells [1] = assay: Cell apoptosis assay (Annexin V/PI flow cytometry); format: cell-based, human; conditions: day 7 of treatment, FIG. 9A
Protocol: To investigate how Z271-0326 inhibits cell growth in EAC cell lines, the effect of Z271-0326 treatment was evaluated on apoptosis. OE33 was treated either with the GSI DAPT or Z271-0326 every other day, and their effects on apoptosis were analyzed. On day 7 of treatment, cell apoptosis was analyzed using FITC Annexin V/Dead Cell Apoptosis Kit with FIFC annexin V and PI for flow cytometry (Invitrogen, V13242).

OE33 cells [2] = assay: Senescence-associated β-galactosidase assay; format: cell-based, human; conditions: treatment for 3 weeks, FIG. 9B
Protocol: After prolonged Z271-0326 or DAPT treatment for 3 weeks of live cells of OE33, cells were measured by senescence-associated β-galaotosidase activity according to the manufacture recommended protocol (Senescence β-Galaotosidase Staining Kit, Cell Signaling, #9860).

NACK = target: T1, NACK (Mus musculus, UniProt Q571I4); assay: Surface plasmon resonance (SPR) binding to GST tagged NACK; conditions: equilibrium approach, 1:1 binding model; 25° C.; FIG. 10A; read-out: KD
T1 sequence (Q571I4 1-1373): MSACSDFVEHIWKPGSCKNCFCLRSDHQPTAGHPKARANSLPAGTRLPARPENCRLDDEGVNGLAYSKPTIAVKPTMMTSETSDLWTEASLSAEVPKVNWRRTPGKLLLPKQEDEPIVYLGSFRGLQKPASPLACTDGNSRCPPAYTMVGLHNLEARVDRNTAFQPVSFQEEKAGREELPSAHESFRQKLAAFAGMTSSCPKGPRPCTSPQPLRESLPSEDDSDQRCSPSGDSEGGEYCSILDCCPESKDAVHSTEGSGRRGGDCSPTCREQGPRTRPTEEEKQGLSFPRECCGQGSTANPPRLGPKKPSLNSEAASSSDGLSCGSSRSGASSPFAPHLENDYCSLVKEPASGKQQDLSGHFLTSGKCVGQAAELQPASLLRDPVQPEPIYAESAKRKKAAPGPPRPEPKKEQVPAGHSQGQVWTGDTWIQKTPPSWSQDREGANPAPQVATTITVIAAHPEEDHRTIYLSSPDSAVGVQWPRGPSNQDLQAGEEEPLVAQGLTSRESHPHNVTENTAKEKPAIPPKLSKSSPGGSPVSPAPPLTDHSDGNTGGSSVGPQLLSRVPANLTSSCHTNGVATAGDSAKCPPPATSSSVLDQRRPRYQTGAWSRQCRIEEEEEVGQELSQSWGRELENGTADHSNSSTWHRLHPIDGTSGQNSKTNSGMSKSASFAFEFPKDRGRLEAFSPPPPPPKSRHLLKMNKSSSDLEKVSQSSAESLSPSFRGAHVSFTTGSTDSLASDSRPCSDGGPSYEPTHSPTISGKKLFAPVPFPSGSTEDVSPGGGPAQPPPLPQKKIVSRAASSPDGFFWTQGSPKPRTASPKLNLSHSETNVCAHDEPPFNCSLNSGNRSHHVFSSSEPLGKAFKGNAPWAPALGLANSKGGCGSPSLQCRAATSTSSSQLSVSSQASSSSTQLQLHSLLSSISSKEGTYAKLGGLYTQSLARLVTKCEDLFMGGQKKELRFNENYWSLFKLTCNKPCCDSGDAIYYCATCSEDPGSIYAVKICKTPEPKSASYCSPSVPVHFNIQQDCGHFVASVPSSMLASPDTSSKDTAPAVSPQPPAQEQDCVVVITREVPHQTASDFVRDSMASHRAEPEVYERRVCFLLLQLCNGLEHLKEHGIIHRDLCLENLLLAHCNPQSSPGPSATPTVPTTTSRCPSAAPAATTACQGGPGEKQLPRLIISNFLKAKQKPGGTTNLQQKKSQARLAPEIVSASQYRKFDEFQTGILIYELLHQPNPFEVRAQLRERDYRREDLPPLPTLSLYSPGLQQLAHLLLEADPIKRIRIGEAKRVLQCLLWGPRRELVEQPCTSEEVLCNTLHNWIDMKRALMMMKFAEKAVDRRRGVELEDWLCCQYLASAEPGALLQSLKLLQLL
Protocol: The interaction between inhibitor Z271-0326 and target NACK was characterized using surface plasmon resonance (SPR). For this purpose, GST tagged NACK was captured by a GST antibody that was previously immobilized onto the surface of the chip through standard amide coupling. The dissociation constants associated with binding of the compounds to NACK was determined using the equilibrium approach, which consists of plotting the equilibrium response (Req) as a function of concentration of the compound and fitting the data to a 1:1 binding model.
A GST capture kit (GE Healthcare) were utilized to covalently immobilize an anti-GST antibody, provided in the kit, to the sensor chip surface (CM5 chip, GE Healthcare) by following the manufacturer's instructions. Capture were performed by injecting GST-NACK (1 μg/μL) over the immobilized anti-GST antibody in Hepes buffer (10 mM Hepes, pH 7.5, 150 mM NaCl, 3 mM EDTA, 0.0005% NP-40) for 7 min at 10 μL/min. A reference flow cell was prepared by capturing GST following the procedure described above. […] Experiments were performed on a Biacore T200 instrument (GE Healthcare) at 25° C. Small molecule inhibitors binding to NACK were performed in 50 mM Tris buffer, pH 7.5, containing 150 mM NaCl, 10 mM MgCl2 and 5% DMSO (running buffer). The SPR signal arising from the sample was corrected for its respective control containing DMSO. Data visualization and analysis was performed using Biacore T200 software (GE Healthcare) and Origin 8.0 (OriginLab).

LCK = LCK (Homo sapiens, UniProt P06239); assay: ADP-Glo LCK kinase assay; format: biochemical; conditions: FIG. 17B
LCK, sequence (P06239 whole entry, species assumed): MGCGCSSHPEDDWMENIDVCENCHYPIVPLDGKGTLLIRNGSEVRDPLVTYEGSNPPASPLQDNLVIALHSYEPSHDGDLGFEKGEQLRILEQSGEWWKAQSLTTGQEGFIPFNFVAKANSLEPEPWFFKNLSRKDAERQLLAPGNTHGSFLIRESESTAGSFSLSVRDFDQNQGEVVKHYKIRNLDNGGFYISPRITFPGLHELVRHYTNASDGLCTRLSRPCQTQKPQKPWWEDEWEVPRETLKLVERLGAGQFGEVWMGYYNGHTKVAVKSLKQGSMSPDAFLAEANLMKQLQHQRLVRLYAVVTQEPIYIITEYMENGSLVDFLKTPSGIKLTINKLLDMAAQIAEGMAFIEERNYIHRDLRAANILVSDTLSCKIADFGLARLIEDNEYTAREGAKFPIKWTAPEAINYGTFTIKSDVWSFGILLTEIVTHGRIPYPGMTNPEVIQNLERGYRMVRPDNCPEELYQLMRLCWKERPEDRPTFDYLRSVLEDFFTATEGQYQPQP
Protocol: (§1) ADP-Glo kinase assay was performed using ADP-Glo™ Kinase Assay (Promega, V6930) according to the manufacture recommended protocol.

TNIK = TNIK (Homo sapiens, UniProt Q9UKE5); assay: ADP-Glo TNIK kinase assay; format: biochemical; conditions: FIG. 17C
TNIK, sequence (Q9UKE5 whole entry, species assumed): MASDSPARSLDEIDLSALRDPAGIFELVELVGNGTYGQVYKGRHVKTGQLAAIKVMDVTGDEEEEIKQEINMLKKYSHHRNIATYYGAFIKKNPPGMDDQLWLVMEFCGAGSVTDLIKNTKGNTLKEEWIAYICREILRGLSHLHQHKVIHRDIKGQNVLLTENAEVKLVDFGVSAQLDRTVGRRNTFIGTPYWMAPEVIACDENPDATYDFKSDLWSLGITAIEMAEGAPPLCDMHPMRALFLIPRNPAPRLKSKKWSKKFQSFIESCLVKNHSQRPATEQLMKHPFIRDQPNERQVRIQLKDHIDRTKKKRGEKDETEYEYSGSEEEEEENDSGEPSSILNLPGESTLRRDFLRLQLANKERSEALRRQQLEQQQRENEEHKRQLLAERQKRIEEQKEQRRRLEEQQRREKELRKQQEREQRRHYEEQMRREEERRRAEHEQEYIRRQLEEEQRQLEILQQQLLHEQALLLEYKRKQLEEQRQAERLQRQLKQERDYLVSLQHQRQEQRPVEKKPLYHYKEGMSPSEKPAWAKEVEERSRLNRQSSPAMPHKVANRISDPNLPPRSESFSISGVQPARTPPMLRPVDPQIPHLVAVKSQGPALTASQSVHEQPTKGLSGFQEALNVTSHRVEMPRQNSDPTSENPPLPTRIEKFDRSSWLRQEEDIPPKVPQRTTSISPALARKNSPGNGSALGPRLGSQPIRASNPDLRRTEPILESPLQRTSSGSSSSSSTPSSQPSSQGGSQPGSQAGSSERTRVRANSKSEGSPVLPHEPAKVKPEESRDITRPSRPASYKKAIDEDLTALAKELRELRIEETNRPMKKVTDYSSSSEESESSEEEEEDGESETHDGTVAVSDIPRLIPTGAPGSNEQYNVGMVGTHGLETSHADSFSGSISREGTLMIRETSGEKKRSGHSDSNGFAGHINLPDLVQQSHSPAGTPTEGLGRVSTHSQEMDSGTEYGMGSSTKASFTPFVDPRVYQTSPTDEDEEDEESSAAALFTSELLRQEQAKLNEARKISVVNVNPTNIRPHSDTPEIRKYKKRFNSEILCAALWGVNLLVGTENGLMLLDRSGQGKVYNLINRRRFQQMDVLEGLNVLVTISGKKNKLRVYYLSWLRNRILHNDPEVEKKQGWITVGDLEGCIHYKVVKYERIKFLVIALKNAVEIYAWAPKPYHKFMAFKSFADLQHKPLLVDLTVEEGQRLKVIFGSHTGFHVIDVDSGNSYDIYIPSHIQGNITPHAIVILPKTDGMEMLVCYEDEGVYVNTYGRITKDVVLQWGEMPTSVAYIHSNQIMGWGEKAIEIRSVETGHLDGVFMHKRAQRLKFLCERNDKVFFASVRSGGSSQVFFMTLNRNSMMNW
Protocol: as §1

[3] = test system: esophageal adenocarcinoma (EAC) PDX
Protocol: Two EAC PDX models were constructed (EAC47 and EAC36) from patient tumor samples. Mice harboring established tumors (approx. 200 mm^3) were treated with either DAPT (20 mg/kg) or Z271-0326 (25 mg/kg) daily via intraperitoneal injections.
When the tumor size reaches 200 mm^3, the corresponding groups were either treated with vehicle (DMSO) or lead compound by IP injection daily.

Q: What does the source list for `CCN(CC)C(=O)c1cnn2ccc(C3CCN(S(=O)(=O)c4ccc(NC(C)=O)cc4)CC3)cc12` [Compound Z271-0326, 5-(1-((4-acetamidophenyl)sulfonyl)piperidin-4-yl)-N,N-diethylpyrazolo[1,5-a]pyridine-3-carboxamide]?
A: secondary sphere formation (OE33 spheres; OE33, FIG. 7A): decrease in the ability of cell spheres to form secondary spheres; Notch target genes transcription in spheres (OE33 spheres; OE33 spheres, FIG. 7B): affected Notch target genes HES1, MYC, CCND1 and NACK transcription; increase in the percent of cells undergoing apoptosis compared to the control (OE33 cells [1]): threefold; cellular senescence (senescence-associated β-galactosidase activity) (OE33 cells [2]): resulted in the induction of cellular senescence; Kd (NACK): 890 ± 70 nM; LCK kinase inhibition (LCK): meaningfully inhibits LCK; TNIK kinase inhibition (TNIK): only meaningfully inhibits LCK out of the three kinases; proliferation index (Ki67 staining) ([3]; Z271-0326 25 mg/kg daily i.p., vs control group, FIG. 11E): decrease in proliferation index; tumor growth ([3]; Z271-0326 25 mg/kg daily intraperitoneal, vs vehicle, FIGS. 11A-11C): significantly attenuated
